# Data published in patent US20230075365A1, “HERBICIDE COMBINATIONS COMPRISING GLUFOSINATE AND SELECTED PPO INHIBITORS” (BASF SE, priority 2020, published 2023).
# Key:
# [1] = test system: Kochia; experiment: Greenhouse post emergence treatment, visual herbicidal activity against Kochia; type: in vivo, Bassia scoparia; details: scale from 0 to 100
# Excerpt: (§1) Synergism can be described as an interaction where the combined effect of two or more compounds is greater than the sum of the individual effects of each of the compounds. The presence of a synergistic effect in terms of percent control, between two mixing partners (X and Y) can be calculated using the Colby equation (Colby, S. R., 1967, Calculating Synergistic and Antagonistic Responses in Herbicide Combinations, Weeds, 15, 21-22):
# (§2) When the observed combined control effect is greater than the expected (calculated) combined control effect (E), then the combined effect is synergistic.
# (§3) Pots with 0.3 L of volume were filled with soil (SunGro Horticulture, Agawam, Mass. 01001) to grow one plant per pot in the greenhouse until the desired developmental stage. Environmental conditions inside the greenhouse were set up for 25° C., 75% relative humidity, and 12 h light day-1 with natural sunlight or 500 μmol m-1 s-1 PAR (photosynthetically active radiation) for cloudy days. Glufosinate applications were always performed in full sunlight to achieve maximum activity. The test period extended to 2 to 21 days after treatment. During this time, the plants were tended, and their response to the individual treatments was evaluated. The evaluation was carried out by visual control using a scale from 0 to 100. 100 means no emergence of the plants or complete destruction of at least the above-ground parts, and 0 means no damage, or normal course of growth. Data shown are the mean of three replications.
# [2] = test system: Velvetleaf; experiment: Greenhouse post emergence treatment (Acifluorfen test method), herbicidal activity against Velvetleaf; type: in vivo, Abutilon theophrasti
# Experimental: Pots with 0.8 L of volume were filled with soil (Sungro Horticulture, Agawam, Mass. 01001) to grow one plant per pot in the greenhouse until the desired developmental stage. Environmental conditions inside the greenhouse were set up for 30° C., 50% relative humidity, and 12 hr light day-1 with natural sunlight or 760 umol m-1 s-1 PAR (Photosynthetically active radiation) for cloudy days. Glufosinate applications were always performed in full sunlight to achieve maximum activity Pots with test plants grown to 3.5 to 4.5 inch (8.9 to 11.4 cm) tall were treated with the herbicidal compositions, which were obtained by diluting commercially available formulations with deionized water to desired concentration, and then sprayed using finely distributing nozzles on to the plants. The test period extended over 21 days after treatment (DAT). During this time, the plants were tended and their response to the individual treatments was evaluated.
# The evaluation was done by calculating using the following Colby equation, wherein X was the effect in percent using acifluorfen at an application rate a, Y was the effect in percent using glufosinate at application rate b, and E was the expected effect (in %) of acifluorfen plus glufosinate at application rates a+b.
# The value E corresponds to the effect (plant damage or injury) which is to be expected if the activity of the individual compounds is just additive. If the observed effect is higher than the value E calculated according to Colby, a synergistic effect is present.
# The evaluation for the damage caused by the chemical compositions was carried out using a scale from 0 to 100%, compared to the untreated control plants. Here, 0 means no damage and 100 means complete destruction of the plants.
# Adjuvants of ammonium sulfate (as AMS Liquid) and non-ionic surfactant (NIS, here as Induce) at rates of 1680 g/ha and 0.25% (v/v), respectively, were added in all treatments with Acifluorfen.
# [3] = test system: Waterhemp; experiment: Greenhouse post emergence treatment, visual herbicidal activity against Waterhemp; type: in vivo, Amaranthus tuberculatus; details: scale from 0 to 100
# Excerpt: as §1, §2
# as §3, with “100 means no emergence of the plants or complete destruction of at least the above-ground parts, and 0 means no damage, or normal course of growth. Data shown are the mean of three replications.” left out
smiles,measurement,setting,value
"CP(=O)(O)CCC(N)C(=O)O (racemic) [Glufosinate, (2RS)-2-amino-4-[hydroxy(methyl)phosphinoyl]butyric acid]","Herbicidal activity against Kochia (21 DAT), Found",[1]; Glufosinate 420 g ai/ha solo,25
same,"Herbicidal activity against Velvetleaf, solo application, % activity","[2]; Glufosinate 123 g ai/ha solo, 7 DAT",49%
same,"Herbicidal activity against Velvetleaf, solo application, % activity","[2]; Glufosinate 123 g ai/ha solo, 14 DAT",56%
same,"Herbicidal activity against Velvetleaf, solo application, % activity","[2]; Glufosinate 123 g ai/ha solo, 21 DAT",45%
same,"Herbicidal activity against Waterhemp (1 DAT), Found",[3]; Glufosinate 280 g ai/ha solo,18
O=C(O)c1cc(Oc2ccc(C(F)(F)F)cc2Cl)ccc1[N+](=O)[O-] [Acifluorfen],"Herbicidal activity against Velvetleaf, solo application, % activity","[2]; Acifluorfen 7.176 g ai/ha solo, 7 DAT",38%
same,"Herbicidal activity against Velvetleaf, solo application, % activity","[2]; Acifluorfen 7.176 g ai/ha solo, 14 DAT",40%
same,"Herbicidal activity against Velvetleaf, solo application, % activity","[2]; Acifluorfen 7.176 g ai/ha solo, 21 DAT",33%
CS(=O)(=O)NC(=O)c1cc(Oc2ccc(C(F)(F)F)cc2Cl)ccc1[N+](=O)[O-] [Fomesafen],"Herbicidal activity against Kochia (21 DAT), Found",[1]; Fomesafen 7.1 g ai/ha solo,25
CCOC(=O)C(C)OC(=O)c1cc(Oc2ccc(C(F)(F)F)cc2Cl)ccc1[N+](=O)[O-] (centres unmarked) [Lactofen],"Herbicidal activity against Kochia (21 DAT), Found",[1]; Lactofen 5.2 g ai/ha solo,25
same,"Herbicidal activity against Waterhemp (1 DAT), Found",[3]; Lactofen 5 g ai/ha solo,3
